These results are taken from ChEMBL document CHEMBL1201862, “PubChem BioAssay data set” (2004).

As a reminder, the EC50 is the concentration needed to bring the measured effect to its halfway point. As usually defined, the AC50 is the midpoint of the concentration-response curve, whichever way the signal moves.

The target of test [1] is T1, Mannose-6-phosphate isomerase (Homo sapiens, UniProt P34949).
T1 sequence (P34949 whole entry): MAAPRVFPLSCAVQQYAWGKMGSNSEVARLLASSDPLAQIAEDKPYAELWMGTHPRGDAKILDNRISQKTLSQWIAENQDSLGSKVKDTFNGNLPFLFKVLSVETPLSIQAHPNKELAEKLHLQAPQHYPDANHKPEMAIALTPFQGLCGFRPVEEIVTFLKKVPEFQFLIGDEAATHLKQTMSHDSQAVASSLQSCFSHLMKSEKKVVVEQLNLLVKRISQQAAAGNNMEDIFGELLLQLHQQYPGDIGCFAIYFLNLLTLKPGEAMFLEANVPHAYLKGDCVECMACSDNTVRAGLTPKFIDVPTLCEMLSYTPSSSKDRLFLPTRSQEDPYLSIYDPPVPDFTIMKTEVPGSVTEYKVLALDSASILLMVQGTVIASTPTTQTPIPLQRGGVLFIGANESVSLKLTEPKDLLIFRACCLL
The experiment in a line: human PMI inhibitors, high substrate, primary screen, biochemical, fluorescence intensity, high mannose 6-phosphate (AID 1220).

In another test the target is Nonstructural protein 1 (Influenza A virus, UniProt Q194T2). The format is functional, Influenza A virus (A/California/07/2009(H1N1)).
For test [2], the target named is T2, Polyadenylate-binding protein 1 (Homo sapiens, UniProt P11940). The experiment in a line: PABP1 MLLE–PAM2 binding inhibitor potency, dose response, biochemical, fluorescence polarization, FITC-PAM2 peptide (AID 602259). The format is functional. The note with it: read-out: IC50_Mean. (In general: In fluorescence polarisation assays a small probe gives low polarisation when free and higher when bound to something large.)

The target of test [3] is T2, Polyadenylate-binding protein 1. The test can be described thus: PABP1 MLLE–PAM2 interaction inhibitors, dose response, miRNA deadenylation inhibitor project, biochemical, fluorescence polarization, Cy5-PAM2 peptide, secondary (AID 602260). The format is functional. The note with it: read-out: IC50_Mean.
The subject of the next test is Vero. The test can be described thus: West Nile virus antiviral activity, cell-based, CPE readout (AID 1621). Type of test: functional. The conditions noted are these: Chlorocebus sabaeus.
For the next test, the target named is T3, Estrogen receptor (Homo sapiens, UniProt P03372).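 Also: potency for inhibiting coactivator peptide recruitment to the receptor.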
T3 sequence (P03372 whole entry): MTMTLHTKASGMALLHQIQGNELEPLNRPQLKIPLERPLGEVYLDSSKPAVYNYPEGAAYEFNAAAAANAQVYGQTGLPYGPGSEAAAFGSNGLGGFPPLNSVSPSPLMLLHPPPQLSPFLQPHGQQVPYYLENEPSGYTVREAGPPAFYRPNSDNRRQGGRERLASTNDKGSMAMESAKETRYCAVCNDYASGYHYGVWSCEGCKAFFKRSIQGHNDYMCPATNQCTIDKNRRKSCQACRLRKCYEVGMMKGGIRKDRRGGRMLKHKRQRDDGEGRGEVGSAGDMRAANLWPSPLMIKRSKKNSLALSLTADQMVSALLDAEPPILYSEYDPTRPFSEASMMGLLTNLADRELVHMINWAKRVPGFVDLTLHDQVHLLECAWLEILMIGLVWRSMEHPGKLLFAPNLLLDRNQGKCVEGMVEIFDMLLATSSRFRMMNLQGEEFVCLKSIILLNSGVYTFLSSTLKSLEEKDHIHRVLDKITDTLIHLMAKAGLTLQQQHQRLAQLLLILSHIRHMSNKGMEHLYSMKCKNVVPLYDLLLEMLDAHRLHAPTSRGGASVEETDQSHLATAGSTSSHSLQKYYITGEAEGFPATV

For test [4], the target named is T4, Carboxy-terminal domain RNA polymerase II polypeptide A small phosphatase 1 (Homo sapiens, UniProt Q9GZU7).
T4 sequence (Q9GZU7 whole entry): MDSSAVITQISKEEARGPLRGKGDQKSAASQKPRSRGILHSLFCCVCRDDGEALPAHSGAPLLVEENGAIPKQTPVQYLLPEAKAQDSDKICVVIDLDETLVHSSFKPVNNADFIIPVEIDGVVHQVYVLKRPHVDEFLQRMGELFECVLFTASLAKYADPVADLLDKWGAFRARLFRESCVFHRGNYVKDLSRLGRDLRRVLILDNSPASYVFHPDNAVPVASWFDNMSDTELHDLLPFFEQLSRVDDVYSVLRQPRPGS
The experiment in a line: inhibitors of CTDSP1, concentration-response testing, biochemical assay, absorbance-based, actives from ultra-high-throughput screening (AID 540297). The format is functional.

A further test concerns Streptococcus. The experiment in a line: Group A Streptococcus viability loss, dose response, counter-screen for streptokinase expression inhibitor project, luminescence, BacTiterGlo (AID 1915).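 Also: potency for reduction of bacterial viability or growth.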 Type of test: functional, organism-based. A general note: The purpose of a counterscreen is to sort out artefacts and off-target activity.
Test [5] deals with Serine/threonine-protein phosphatase PP1-alpha catalytic subunit (Homo sapiens, UniProt P62136). The test can be described thus: PP1 phosphatase inhibitors, dose response, biochemical, fluorescence (AID 2403).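 Also: phosphatase turnover of OMFP into fluorescent 3-O-methylfluorescein.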
Test [6] can be described thus: cytotoxicity toward NIH3T3 fibroblasts, dose response, counter-screen, cell-based, ATP luminescence, mouse fibroblasts (AID 2010).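 Also: cells exposed to compound for about 90 hours before reading.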 The format is functional.
Test [7] concerns BJ. The test can be described thus: cells. The format is functional, cell-based, Homo sapiens. The note with it: Homo sapiens, BJ.
Test [8] has as its system BJ. The test can be described thus: cytotoxicity toward BJ-TERT-LT-ST fibroblasts, dose response, cell-based, RAS-independent, luminescence (AID 1935).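 Also: BJ fibroblasts immortalized with TERT plus LT and ST oncogenes.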 Type of test: functional. The note with it: Homo sapiens.
A short description of test [9]: control 3'UTR Renilla luciferase suppression, dose response, counter-screen for Shn3 inhibitor project, cell-based, Clone20-Shn3RL, cherry-picked (AID 624133). The format is functional.
For test [10], the system named is Streptococcus sp. 'group A'. The experiment in a line: growth inhibition of control SK(-) GAS strain, dose response, counter-screen for streptokinase expression inhibitor project, luminescence, kanamycin, BacTiterGlo, confirmation (AID 1900). The format is functional, organism-based.
Test [11] is described as follows: cytotoxicity toward DRD oncogenic fibroblasts, dose response, cell-based, non-viral oncogenic, luminescence (AID 1934). Type of test: functional. The conditions noted are these: Homo sapiens.
Test [12] in a line: inhibitors of intracellular T. cruzi replication, confirmation, NIH3T3 host cells, beta-gal luminescence (AID 2044).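 Also: intracellular parasites grown in NIH/3T3 mouse fibroblasts as host cells; luminescent beta-galactosidase reporter signal from transgenic T. cruzi replicating inside host cells; inhibitors lower the luminescence signal.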 The format is functional, cell-based.
Test [13] is described as follows: cells. The format is functional, cell-based.
A further test deals with INS1. The test can be described thus: beta cell apoptosis inhibitors, cytokine rescue, dose response, luminescence, retest (AID 449756).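 Also: cell death triggered by IL-1 beta plus TNF-alpha plus IFN-gamma mixture; protective hits raise ATP signal compared with cytokine alone wells.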 Type of test: functional, cell-based. The note with it: Rattus norvegicus.
Test [14] concerns BJ. The test can be described thus: cytotoxicity toward BJ-TERT fibroblasts, dose response, cell-based, RAS-independent, luminescence (AID 1933). The note with it: Homo sapiens. The format is functional.
Test [15] can be described thus: Shn3 3'UTR reporter inhibitors, dose response, cell-based, Clone20 osteoblasts, firefly luciferase, cherry-picked (AID 624132).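 Also: firefly luciferase luminescence from reporter carrying the Shn3 3'UTR in osteoblasts.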 The format is functional.
For test [16], the target named is Serine/threonine-protein phosphatase (Homo sapiens, UniProt Q9BPW0). The experiment in a line: Counterscreen for inhibitors of PP1: fluorescence-based biochemical high throughput dose response assay to identify inhibitors of Protein Phosphatase 5 (PP5). [Related pubchem assays: 2034 (Summary (PP5 inhibitors)), 1987 (PP5 inhibitors in singlate), 2235 (PP1 inhibitors in singlate)].

Test [17] is described as follows: cells. Type of test: functional, cell-based. This is another data set of the same source.
Test [18] is described as follows: HepG2 cell cytotoxicity, dose response, cytotoxicity control for Shn3 inhibitor project, CellTiter-Glo, cherry-picked (AID 624134). Type of test: functional, cell-based. For orientation: ATP-based viability assays read luminescence as a measure of living cells.
The next test concerns the target Insulin-degrading enzyme (Homo sapiens, UniProt P14735). The test can be described thus: Dose Response: Fluorescence polarization-based cell-based high throughput dose response assay for inhibitors of insulin-degrading enzyme (IDE). [Related pubchem assays: 434962 (Primary screen (IDE inhibitors in singlicate)), 449730 (Counterscreen (Cytotoxicity in triplicate)), 435028 (Confirmation (IDE inhibitors in triplicate)), 434984 (Summary …. The format is functional.

Test [19] can be described thus: Counterscreen for IDE inhibitors: Luminescence-based cell-based high throughput dose response assay to identify compounds that are cytotoxic to HEK cells. [Related pubchem assays: 434962 (Primary screen (IDE inhibitors in singlicate)), 449730 (Counterscreen (Cytotoxicity in triplicate)), 435028 (Confirmation (IDE inhibitors in triplicate)) …. Type of test: functional. The note with it: HEK293.

Another test deals with Wee1-like protein kinase (Homo sapiens, UniProt P30291). The test can be described thus: Dose Response Cell-based Assay for Inhibitors of Wee1 Degradation. [Related pubchem assays: 1410, 1321 ]. The format is functional.
Test [20] addresses G2/mitotic-specific cyclin-B1 (Homo sapiens, UniProt P14635). The experiment in a line: Counterscreen assay for inhibitors of Wee1 degradation: dose response cell-based assay to identify inhibitors of cyclin B degradation. [Related pubchem assays: 1410, 1321 ]. Type of test: functional.
Test [21] deals with T5, Low molecular weight phosphotyrosine protein phosphatase (Homo sapiens, UniProt P24666).
T5 sequence (P24666 whole entry): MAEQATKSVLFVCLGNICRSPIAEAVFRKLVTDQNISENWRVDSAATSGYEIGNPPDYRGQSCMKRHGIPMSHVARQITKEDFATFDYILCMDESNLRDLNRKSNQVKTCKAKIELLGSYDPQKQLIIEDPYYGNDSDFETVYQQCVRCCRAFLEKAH
The experiment in a line: LMPTP phosphatase inhibitors, dose response, biochemical, OMFP substrate, fluorescence intensity, set 2 (AID 743307). The format is functional.

In test [22] the target is T5, Low molecular weight phosphotyrosine protein phosphatase. The test can be described thus: LMPTP phosphatase inhibitors, colorimetric pNPP readout, dose response, orthogonal assay, biochemical, absorbance, pNPP substrate, LMPTP-A isoform, set 2 (AID 743308). The format is functional.
In test [23] the target is T6, Heat shock factor protein 1 (Mus musculus, UniProt P38532).
T6 sequence (P38532 whole entry): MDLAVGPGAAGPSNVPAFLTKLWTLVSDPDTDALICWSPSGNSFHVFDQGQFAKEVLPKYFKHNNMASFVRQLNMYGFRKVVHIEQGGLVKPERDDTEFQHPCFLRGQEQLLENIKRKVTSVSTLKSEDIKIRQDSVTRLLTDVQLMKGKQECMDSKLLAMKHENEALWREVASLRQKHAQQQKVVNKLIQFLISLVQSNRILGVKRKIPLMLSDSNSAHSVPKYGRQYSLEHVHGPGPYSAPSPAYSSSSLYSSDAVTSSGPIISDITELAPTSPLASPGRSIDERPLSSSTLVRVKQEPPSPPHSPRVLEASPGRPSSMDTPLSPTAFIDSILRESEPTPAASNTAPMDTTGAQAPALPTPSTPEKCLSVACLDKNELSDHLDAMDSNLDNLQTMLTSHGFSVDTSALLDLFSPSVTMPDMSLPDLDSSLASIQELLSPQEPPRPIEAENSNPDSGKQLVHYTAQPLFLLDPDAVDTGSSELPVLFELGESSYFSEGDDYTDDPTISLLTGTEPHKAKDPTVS
The test can be described thus: HSF1 potentiators in luciferase reporter cells, confirmation, cell-based, NIH3T3, luminescence, dose retest (AID 435004).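 Also: stress induced by proteasome inhibitor MG132 added 30 min after compound; luciferase reporter driven by HSF1 response element in NIH3T3 cells; actives raise luminescence as potentiators of the MG132 stress response.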 The format is functional.

Active and inactive are the calls of the source.

Chain of Wee1-like protein kinase (P30291 whole entry): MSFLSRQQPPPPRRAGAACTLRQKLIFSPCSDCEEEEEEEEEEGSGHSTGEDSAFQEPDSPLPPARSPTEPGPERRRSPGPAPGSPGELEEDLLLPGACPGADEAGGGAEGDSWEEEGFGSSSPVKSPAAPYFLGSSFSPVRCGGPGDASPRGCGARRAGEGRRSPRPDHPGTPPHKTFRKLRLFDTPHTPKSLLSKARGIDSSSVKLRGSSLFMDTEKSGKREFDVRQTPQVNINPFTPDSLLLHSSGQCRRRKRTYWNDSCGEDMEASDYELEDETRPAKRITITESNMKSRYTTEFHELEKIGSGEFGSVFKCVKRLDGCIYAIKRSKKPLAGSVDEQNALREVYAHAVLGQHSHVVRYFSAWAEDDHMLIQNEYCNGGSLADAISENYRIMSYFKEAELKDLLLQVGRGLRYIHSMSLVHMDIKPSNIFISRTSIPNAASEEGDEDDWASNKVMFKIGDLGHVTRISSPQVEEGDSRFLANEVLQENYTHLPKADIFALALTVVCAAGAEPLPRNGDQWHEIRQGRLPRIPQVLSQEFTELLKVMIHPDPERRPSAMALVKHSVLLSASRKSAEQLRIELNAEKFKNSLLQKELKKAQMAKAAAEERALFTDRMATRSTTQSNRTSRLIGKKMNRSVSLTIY
Chain of Insulin-degrading enzyme (P14735 whole entry): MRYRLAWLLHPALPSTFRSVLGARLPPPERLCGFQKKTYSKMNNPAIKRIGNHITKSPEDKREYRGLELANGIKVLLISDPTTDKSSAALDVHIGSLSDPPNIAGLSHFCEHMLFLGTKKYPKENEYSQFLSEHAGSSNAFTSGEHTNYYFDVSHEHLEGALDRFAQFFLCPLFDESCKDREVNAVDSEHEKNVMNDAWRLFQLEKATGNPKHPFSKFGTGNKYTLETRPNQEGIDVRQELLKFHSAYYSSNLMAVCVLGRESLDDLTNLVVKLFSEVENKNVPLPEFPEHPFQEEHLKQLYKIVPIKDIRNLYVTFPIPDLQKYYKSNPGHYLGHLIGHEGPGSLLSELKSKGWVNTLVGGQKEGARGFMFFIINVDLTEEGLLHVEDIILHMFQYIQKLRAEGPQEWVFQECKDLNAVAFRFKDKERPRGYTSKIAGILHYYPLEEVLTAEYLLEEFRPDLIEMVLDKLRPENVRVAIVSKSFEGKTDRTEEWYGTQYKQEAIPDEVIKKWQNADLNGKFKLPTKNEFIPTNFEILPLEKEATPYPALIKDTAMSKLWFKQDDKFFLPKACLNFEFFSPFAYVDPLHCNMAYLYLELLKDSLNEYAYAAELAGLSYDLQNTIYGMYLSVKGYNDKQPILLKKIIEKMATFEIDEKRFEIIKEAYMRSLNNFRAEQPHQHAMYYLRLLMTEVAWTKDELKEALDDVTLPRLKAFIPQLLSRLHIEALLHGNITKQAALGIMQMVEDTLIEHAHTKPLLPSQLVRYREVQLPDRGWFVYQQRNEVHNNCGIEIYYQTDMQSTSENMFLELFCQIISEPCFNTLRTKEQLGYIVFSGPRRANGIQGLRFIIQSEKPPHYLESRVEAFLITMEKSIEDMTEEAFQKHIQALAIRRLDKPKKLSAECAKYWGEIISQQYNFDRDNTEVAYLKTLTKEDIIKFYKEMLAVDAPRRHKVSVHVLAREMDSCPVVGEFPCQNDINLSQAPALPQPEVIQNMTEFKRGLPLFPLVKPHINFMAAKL
Chain of G2/mitotic-specific cyclin-B1 (P14635 whole entry): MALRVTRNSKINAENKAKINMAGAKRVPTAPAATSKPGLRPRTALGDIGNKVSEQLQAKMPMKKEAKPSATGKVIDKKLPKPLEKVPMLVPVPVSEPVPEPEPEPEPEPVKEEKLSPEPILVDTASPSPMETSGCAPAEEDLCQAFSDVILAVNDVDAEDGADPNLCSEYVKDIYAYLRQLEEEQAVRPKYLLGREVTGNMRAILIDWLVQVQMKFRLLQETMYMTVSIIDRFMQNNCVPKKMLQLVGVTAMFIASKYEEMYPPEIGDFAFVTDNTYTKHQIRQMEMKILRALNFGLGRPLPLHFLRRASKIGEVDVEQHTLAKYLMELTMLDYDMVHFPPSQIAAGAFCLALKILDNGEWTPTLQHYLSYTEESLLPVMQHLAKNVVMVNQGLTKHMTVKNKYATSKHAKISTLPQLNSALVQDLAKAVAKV
T2 sequence (P11940 whole entry): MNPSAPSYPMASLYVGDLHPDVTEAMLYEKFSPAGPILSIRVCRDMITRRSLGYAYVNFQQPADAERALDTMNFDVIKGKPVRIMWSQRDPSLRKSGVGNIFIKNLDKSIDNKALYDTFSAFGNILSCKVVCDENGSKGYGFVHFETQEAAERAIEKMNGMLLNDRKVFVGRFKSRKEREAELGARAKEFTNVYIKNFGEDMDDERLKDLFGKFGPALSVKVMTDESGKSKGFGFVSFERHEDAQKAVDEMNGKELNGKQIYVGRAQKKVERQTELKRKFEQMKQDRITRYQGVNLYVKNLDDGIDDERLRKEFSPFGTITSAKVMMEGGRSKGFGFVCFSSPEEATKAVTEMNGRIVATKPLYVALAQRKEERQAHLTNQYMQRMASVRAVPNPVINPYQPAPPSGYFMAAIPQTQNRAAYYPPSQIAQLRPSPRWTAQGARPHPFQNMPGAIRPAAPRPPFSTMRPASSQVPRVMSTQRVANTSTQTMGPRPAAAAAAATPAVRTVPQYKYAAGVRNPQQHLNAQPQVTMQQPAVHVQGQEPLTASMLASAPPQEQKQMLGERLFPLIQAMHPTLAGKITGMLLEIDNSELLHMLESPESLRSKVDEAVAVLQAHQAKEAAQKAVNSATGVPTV
Chain of Nonstructural protein 1 (Q194T2 whole entry): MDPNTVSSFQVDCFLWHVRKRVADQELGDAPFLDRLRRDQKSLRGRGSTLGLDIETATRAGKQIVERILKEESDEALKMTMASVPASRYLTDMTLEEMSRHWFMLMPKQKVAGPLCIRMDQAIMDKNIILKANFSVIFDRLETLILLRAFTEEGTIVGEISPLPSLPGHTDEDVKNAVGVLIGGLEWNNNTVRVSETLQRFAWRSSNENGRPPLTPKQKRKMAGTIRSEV
Chain of Serine/threonine-protein phosphatase (Q9BPW0 whole entry): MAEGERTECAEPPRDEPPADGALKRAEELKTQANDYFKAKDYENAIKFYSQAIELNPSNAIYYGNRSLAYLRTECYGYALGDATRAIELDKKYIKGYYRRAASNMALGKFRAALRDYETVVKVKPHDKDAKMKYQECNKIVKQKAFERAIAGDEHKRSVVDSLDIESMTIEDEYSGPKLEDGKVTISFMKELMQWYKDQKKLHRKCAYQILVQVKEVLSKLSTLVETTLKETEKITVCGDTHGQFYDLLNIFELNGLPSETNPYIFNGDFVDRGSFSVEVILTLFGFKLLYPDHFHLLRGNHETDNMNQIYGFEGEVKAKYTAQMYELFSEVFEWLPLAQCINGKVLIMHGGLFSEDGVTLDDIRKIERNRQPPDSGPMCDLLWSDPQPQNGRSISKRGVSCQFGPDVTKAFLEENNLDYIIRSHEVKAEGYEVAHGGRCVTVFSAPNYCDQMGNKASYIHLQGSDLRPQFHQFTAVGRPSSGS
Chain of Serine/threonine-protein phosphatase PP1-alpha catalytic subunit (P62136 whole entry): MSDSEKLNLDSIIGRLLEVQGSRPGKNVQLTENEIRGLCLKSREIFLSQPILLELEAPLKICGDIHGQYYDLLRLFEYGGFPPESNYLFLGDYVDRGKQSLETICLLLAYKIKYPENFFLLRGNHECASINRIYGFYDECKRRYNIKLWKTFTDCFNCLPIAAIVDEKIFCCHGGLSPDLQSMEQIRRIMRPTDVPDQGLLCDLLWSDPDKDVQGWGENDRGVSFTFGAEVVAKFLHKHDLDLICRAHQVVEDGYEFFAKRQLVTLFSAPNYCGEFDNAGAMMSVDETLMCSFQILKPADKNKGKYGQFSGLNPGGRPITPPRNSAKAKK

As for `O=C(O)CNC(=O)CC1SC(NN=C2CSC(=O)N2)=NC1=O` (stereo not drawn), the IC50 was 46.3 µM (active) in [1], 7.74 µM (active) at Nonstructural protein 1, > 66 µM (inactive) in test [2] and > 66 µM (inactive) in test [3].
Regarding `Cc1ccc(C)c(CN2C(=O)c3ccccc3[S+]([O-])c3ccc(C(=O)NCCCN4CCCC4)cc32)c1` (stereo not drawn), the IC50 with Vero is 22 µM (active).
For the molecule `Cc1sc2ncnc(SCC(=O)NC(=O)NCc3ccco3)c2c1C`, the IC50 was 11.5 µM (active) at Estrogen receptor and 10.6 µM (active) in test [4].
For `CCCCc1c(C)nc2ccc(Br)cc2c1SC(N)N`, the IC50 in [1] was > 50 µM (not active).
In the case of `Cc1ccc(Nc2c(-c3ccccn3)nc3cccc(C)n23)cc1`, the EC50 is 1.35 µM (active) in the test with Streptococcus; < 6 µM (inconclusive) in test [6]; 14.3 µM (active) with BJ [7]; 8.61 µM (inconclusive) with BJ [8]; 0.77 µM (active) in test [10]; 13.5 µM (active) in test [11]. Further, the EC50 in [12] is 0.488 µM (active); in the test “cells [13]”, 12.7 µM (active); in the test with BJ [14], 6.81 µM (active); in “cells [17]” it was > 350 µM (not active). The IC50 in [5] is 8.52 µM (active); in test [16], 45.1 µM (not active). Further, the AC50 in [9] was 0.907 µM (active); in the test on INS1 it was 2.77 µM (active); in test [15] it was 1.9 µM (active); in [18] it was 25.6 µM (active).
In the case of `CN(C)CCNS(=O)(=O)c1ccc(N2CCN(c3ccc(F)cc3)CC2)c([N+](=O)[O-])c1`, the IC50 with Vero was 20 µM (active).
In the case of `Nc1c2c(nc3ccn(-c4ccccc4)c(=O)c13)CCCCC2`, the results for the IC50 (at Insulin-degrading enzyme; in test [19]) were > 55.9 µM (not active) and 22.3 µM (not active), respectively.
The matching figures for `C=CCN(C(=O)COC(=O)c1cc[n+]([O-])cc1)c1nc(-c2ccccc2)cs1`: 4.84 µM (active) and 50.6 µM (not active).
For `O/C(=C\c1nc2ccccc2nc1O)c1cccs1`, the EC50 (at Wee1-like protein kinase; in test [20]) was > 49.7 µM (not active) in each case.
For `c1ccc(-c2nc(NCCCN3CCCCC3)c3ccccc3n2)cc1`, the IC50 is 21.9 µM (inactive) in test [21] and 38.6 µM (inactive) in [22].
As to `Clc1ccccc1-c1cc(NCCCN2CCCCC2)c2ccccc2n1`, the IC50 in test [21] is 11.6 µM (active); in test [22], 32.5 µM (inactive).
As to `CCOC(=O)N1CCN(C(=O)c2cc(-c3ccc(OCC)cc3)nc3ccccc23)CC1`, the figures for the EC50 (at Wee1-like protein kinase; in test [20]; in [23]) were > 49.7 µM (not active), > 49.7 µM (not active) and 14.5 µM (active), respectively.
